This is an account of results in US10526332B2, “Imidazo-pyrimidone compounds, and preparation method and application thereof” (Nanjing Gator Meditech Company, Ltd., priority 2015, dated 2020).

Broadly, the IC50 is the concentration that inhibits the measured activity by half.

One test deals with HCT116. The test is described as follows: MTS cell proliferation test, HCT116.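 Also: absorbance at 490 nm after MTS/PMS addition, survival relative to untreated cells (100%) after blank subtraction, IC50 from the concentration–survival curve.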 The note with it: Homo sapiens, HCT-116, 72 h, read-out: HCT116 IC50 (Mean ± SD).
For another test, the system named is MDA-MB-231. The test is described as follows: MTS cell proliferation test, MDA-MB-231.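 Also: cells settled 24 h before compound addition, MTS absorbance at 490 nm, survival as percent of untreated cells after blank subtraction, IC50 fitted from survival versus concentration.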 The note with it: Homo sapiens, MDA-MB-231, 72 h, read-out: MDA231 IC50 (Mean ± SD).

Description for HCT116: (§1) The disclosed compounds and their pharmaceutically accepted salts are assayed for their anti-cancer activities by the following method. • MTS Cell Proliferation Test 1. Materials 1.1. […] Cell Lines
(§2) Two cell lines were used, both HCT116 and MDA-MB-231 were purchased from USATCC.
(§3) MTS reagent powder was purchased from Promega. Cat #G1111; PMS from Sigma, Cat #P8625; cell culture medium RPMI-1640, Cat #10040562R; DMEM, Cat #0013CVR; 100× sodium pyruvate solution Cat #136007; 100× Penicillin Streptomycin Solution, Cat ⊇15140122; 100× Penicillin Streptomycin Solution, Cat #15140122; 0.25% Trypsin (Parenzyme), Cat #25200-072; and fetal bovine serum, Cat #16000-044 were all purchased from Life Technologies.
(§4) • Thermo incubator (Format 371); • Heat force Biosafety Cabinet (HF sage 1500); • BioTek Microplate Reader (Synergy 2). 2. […] 2.3 Procedure of MTS Methods:
(§5) Cells at logarithmic phase were harvested, then digested with 0.25% trypsin, and re-suspense in complete growth medium. 150 uL/well of HCT-116 and MDA-MB-231 were dispensed into 96 well culture plates with 2.5×10^3 cell/well. The plates were pre-incubated in a humidified CO2 incubator at 37° C., 5% CO2) for 24 hours. 50 uL of various concentration of test compounds and reference compound were added. A negative control (only cells and culture medium without compound) and blank control (only culture medium without cells) were set at the same time. The plates were incubated for 72 hr in the incubator. The MTS/PMS solution was prepared and added into 96 well plates according to the test instruction by Promega Corporation. The plates were incubated again for some time, then the absorbance at 490 nm were measured using Biotek Instruments, Inc microplate reader and the cell survival rates calculated. Cell Survival Rate(%)=(At−Ab)/(Ac−Ab)×100% where, • At=Absorbance value of test compound • Ab=Absorbance value of blank • Ac=Absorbance value of control 3. Results
Description for MDA-MB-231: as §1, §2, §3, §4, §5

With `O=C1C2=C(CCN(Cc3ccccc3F)C2)N2CCN=C2N1Cc1ccccc1C(F)(F)F` [Compound I-12, 7-(2-fluorobenzyl)-4-(2-(trifluoromethyl)benzyl)-1,2,6,7,8,9-hexahydroimidazo[1,2-a]pyrido[3,4-e]pyrimidin-5(4H)-one], the results for the IC50 in the test on HCT116 and with MDA-MB-231 were 2040 ± 29 nM and 2070 ± 1 nM, respectively. With `Cc1ccccc1CN1C(=O)C2=C(CCN(Cc3cccc(Br)c3)C2)N2CCN=C12` [Compound I-29, 7-(3-bromobenzyl)-4-(2-methylbenzyl)-1,2,6,7,8,9-hexahydroimidazo[1,2-a]pyrido[3,4-e]pyrimidin-5(4H)-one], the IC50 was found to be 720 ± 1 nM in the test with HCT116 and 740 ± 2 nM in the test on MDA-MB-231. For `O=C1C2=C(CCN(Cc3ccccc3F)C2)N2CCN=C2N1Cc1ccccc1Cl` [Compound I-13, 4-(2-chlorobenzyl)-7-(2-fluorobenzyl)-1,2,6,7,8,9-hexahydroimidazo[1,2-a]pyrido[3,4-e]pyrimidin-5(4H)-one], the IC50 came to 1770 ± 72 nM with HCT116 and 1940 ± 277 nM in the test with MDA-MB-231.

For `Cc1cccc(CN2C(=O)C3=C(CCN(Cc4ccccc4)C3)N3CCN=C23)c1` [Compound I-2, 7-benzyl-4-(3-methylbenzyl)-1,2,6,7,8,9-hexahydroimidazo[1,2-a]pyrido[3,4-e]pyrimidin-5(4H)-one], the IC50 was determined as 230 ± 4 nM in the test with HCT116 and 240 nM with MDA-MB-231. `Cc1cccc(CN2CCC3=C(C2)C(=O)N(Cc2ccccc2C(F)(F)F)C2=NCCN23)c1` [Compound I-31, 7-(3-methylbenzyl)-4-(2-(trifluoromethyl)benzyl)-1,2,6,7,8,9-hexahydroimidazo[1,2-a]pyrido[3,4-e]pyrimidin-5(4H)-one]: the IC50 was found to be 1250 ± 122 nM in the test on HCT116 and 1650 ± 50 nM in the test on MDA-MB-231. For the compound `Cc1ccccc1CN1C(=O)C2=C(CCN(Cc3ccccc3F)C2)N2CCN=C12` [Compound I-15, 7-(2-fluorobenzyl)-4-(2-methylbenzyl)-1,2,6,7,8,9-hexahydroimidazo[1,2-a]pyrido[3,4-e]pyrimidin-5(4H)-one], the values for the IC50 in the test on HCT116 and in the test with MDA-MB-231 were 680 ± 3 nM and 730 ± 4 nM, respectively. For `Cc1ccccc1CN1C(=O)C2=C(CCN(Cc3ccccc3Cl)C2)N2CCN=C12` [Compound I-27, 7-(2-chlorobenzyl)-4-(2-methylbenzyl)-1,2,6,7,8,9-hexahydroimidazo[1,2-a]pyrido[3,4-e]pyrimidin-5(4H)-one] the same measures were 2130 ± 45 nM and 2260 ± 18 nM. In the case of `O=C1C2=C(CCN(Cc3ccccc3Cl)C2)N2CCN=C2N1Cc1ccccc1C(F)(F)F` [Compound I-24, 7-(2-chlorobenzyl)-4-(2-(trifluoromethyl)benzyl)-1,2,6,7,8,9-hexahydroimidazo[1,2-a]pyrido[3,4-e]pyrimidin-5(4H)-one], the results for the IC50 in the test with HCT116 and in the test on MDA-MB-231 were 2090 ± 41 nM and 1990 ± 39 nM, respectively. Take `Cc1cccc(CN2CCC3=C(C2)C(=O)N(Cc2ccccc2Cl)C2=NCCN23)c1` [Compound I-32, 4-(2-chlorobenzyl)-7-(3-methylbenzyl)-1,2,6,7,8,9-hexahydroimidazo[1,2-a]pyrido[3,4-e]pyrimidin-5(4H)-one]: the IC50 in the test with HCT116 turned out to be 770 ± 48 nM; with MDA-MB-231, 740 ± 1 nM. In the case of `O=C1C2=C(CCN(Cc3cccc(Br)c3)C2)N2CCN=C2N1Cc1ccccc1F` [Compound I-53, 7-(3-bromobenzyl)-4-(2-fluorobenzyl)-1,2,6,7,8,9-hexahydroimidazo[1,2-a]pyrido[3,4-e]pyrimidin-5(4H)-one], the IC50 turned out to be 700 ± 1 nM in the test with HCT116 and 730 ± 2 nM in the test with MDA-MB-231. In the case of `Cc1ccccc1CN1C(=O)C2=C(CCN(Cc3ccccc3Br)C2)N2CCN=C12` [Compound I-20, 7-(2-bromobenzyl)-4-(2-methylbenzyl)-1,2,6,7,8,9-hexahydroimidazo[1,2-a]pyrido[3,4-e]pyrimidin-5(4H)-one], the figures for the IC50 in the test with HCT116 and in the test on MDA-MB-231 were 27500 ± 3350 nM and 27100 ± 3240 nM, respectively. Consider `O=C1C2=C(CCN(Cc3ccccc3Br)C2)N2CCN=C2N1Cc1ccccc1Br` [Compound I-19, 4,7-bis(2-bromobenzyl)-1,2,6,7,8,9-hexahydroimidazo[1,2-a]pyrido[3,4-e]pyrimidin-5(4H)-one], for which the IC50 in the test on HCT116 stood at 2220 ± 7 nM; in the test with MDA-MB-231, 3670 ± 36 nM. Consider `O=C1C2=C(CCN(Cc3ccccc3Br)C2)N2CCN=C2N1Cc1ccccc1C(F)(F)F` [Compound I-17, 7-(2-bromobenzyl)-4-(2-(trifluoromethyl)benzyl)-1,2,6,7,8,9-hexahydroimidazo[1,2-a]pyrido[3,4-e]pyrimidin-5(4H)-one], for which the IC50 came out at 2020 ± 22 nM in the test on HCT116 and 2140 ± 31 nM with MDA-MB-231. Taken in the same sequence, the figures for `O=C1C2=C(CCN(Cc3ccccc3)C2)N2CCN=C2N1Cc1ccc(Cl)c(C(F)(F)F)c1` [Compound I-42, 7-benzyl-4-(4-chloro-3-(trifluoromethyl)benzyl)-1,2,6,7,8,9-hexahydroimidazo[1,2-a]pyrido[3,4-e]pyrimidin-5(4H)-one] were 730 nM and 1070 ± 10 nM.

In the case of `Cc1ccccc1CN1C(=O)C2=C(CCN(Cc3ccc(N4CCOCC4)cc3)C2)N2CCN=C12` [Compound I-8, 4-(2-methylbenzyl)-7-(4-morpholinobenzyl)-1,2,6,7,8,9-hexahydroimidazo[1,2-a]pyrido[3,4-e]pyrimidin-5(4H)-one], the concentration for half-maximal inhibition (IC50) with HCT116 was determined as 1770 ± 230 nM; in the test on MDA-MB-231, 1820 ± 241 nM. For `O=C1C2=C(CN(Cc3ccccc3)C2)N2CCN=C2N1Cc1ccccc1Br` [Compound I-55, 2-Benzyl-5-(2-bromobenzyl)-2,3,7,8-tetrahydro-1H-imidazo[1,2-a]pyrrolo[3,4-e]pyrimidin-4(5H)-one] the same measures were 2140 ± 1 nM and 2190 ± 39 nM. For `Cc1cccc(CN2CCC3=C(C2)C(=O)N(Cc2ccccc2Br)C2=NCCN23)c1` [Compound I-33, 4-(2-bromobenzyl)-7-(3-methylbenzyl)-1,2,6,7,8,9-hexahydroimidazo[1,2-a]pyrido[3,4-e]pyrimidin-5(4H)-one] the same measures were 720 ± 1 nM and 860 ± 136 nM. As for `O=C1C2=C(CCN(Cc3ccccc3Cl)C2)N2CCN=C2N1Cc1ccccc1Cl` [Compound I-25, 4,7-bis(2-chlorobenzyl)-1,2,6,7,8,9-hexahydroimidazo[1,2-a]pyrido[3,4-e]pyrimidin-5(4H)-one], the IC50 in the test with HCT116 worked out at 1950 ± 64 nM; in the test on MDA-MB-231, 1310 ± 154 nM. For `Cc1ccccc1CN1CCC2=C(C1)C(=O)N(Cc1ccccc1C(F)(F)F)C1=NCCN12` [Compound I-22, 7-(2-methylbenzyl)-4-(2-(trifluoromethyl)benzyl)-1,2,6,7,8,9-hexahydroimidazo[1,2-a]pyrido[3,4-e]pyrimidin-5(4H)-one] the same measures were 2030 ± 9 nM and 2130 ± 8 nM. For the compound `Cc1ccccc1CN1C(=O)C2=C(CCN(Cc3cccc(C(F)(F)F)c3)C2)N2CCN=C12` [Compound I-9, 4-(2-methylbenzyl)-7-(3-(trifluoromethyl)benzyl)-1,2,6,7,8,9-hexahydroimidazo[1,2-a]pyrido[3,4-e]pyrimidin-5(4H)-one], the IC50 in the test on HCT116 was 710 ± 1 nM; in the test on MDA-MB-231 it was 740 nM. In the case of `O=C1C2=C(CCN(Cc3ccccc3)C2)N2CCN=C2N1Cc1ccccc1C(F)(F)F` [Compound I-4, 7-benzyl-4-(2-(trifluoromethyl)benzyl)-1,2,6,7,8,9-hexahydroimidazo[1,2-a]pyrido[3,4-e]pyrimidin-5(4H)-one], the IC50 in the test on HCT116 worked out at 1360 ± 23 nM; in the test with MDA-MB-231, 1170 ± 178 nM. Taken in the same sequence, the figures for `O=C1C2=C(CCN(Cc3cccc(Br)c3)C2)N2CCN=C2N1Cc1ccccc1C(F)(F)F` [Compound I-54, 7-(3-bromobenzyl)-4-(2-(trifluoromethyl)benzyl)-1,2,6,7,8,9-hexahydroimidazo[1,2-a]pyrido[3,4-e]pyrimidin-5(4H)-one] were 21410 ± 34 nM and 24800 ± 2580 nM. As for `O=C1C2=C(CN(Cc3ccccc3)C2)N2CCN=C2N1Cc1ccc(Cl)c(C(F)(F)F)c1` [Compound I-57, 2-benzyl-5-(4-chloro-3-(trifluoromethyl)benzyl)-2,3,7,8-tetrahydro-1H-imidazo[1,2-a]pyrrolo[3,4-e]pyrimidin-4(5H)-one], the concentration for half-maximal inhibition (IC50) with HCT116 was found to be 2080 ± 10 nM; in the test on MDA-MB-231 it was 2100 ± 70 nM. As for `O=C1C2=C(CCN(Cc3ccccc3)C2)N2CCN=C2N1Cc1ccc(C(F)(F)F)cc1` [Compound I-39, 7-benzyl-4-(4-(trifluoromethyl)benzyl)-1,2,6,7,8,9-hexahydroimidazo[1,2-a]pyrido[3,4-e]pyrimidin-5(4H)-one], the IC50 in the test on HCT116 turned out to be 30 nM; in the test on MDA-MB-231 it was 50 nM. In the case of `O=C1C2=C(CCN(Cc3ccccc3)C2)N2CCN=C2N1Cc1ccc(Cl)cc1C(F)(F)F` [Compound I-43, 7-benzyl-4-(4-chloro-2-(trifluoromethyl)benzyl)-1,2,6,7,8,9-hexahydroimidazo[1,2-a]pyrido[3,4-e]pyrimidin-5(4H)-one], the IC50 in the test with HCT116 was 4290 ± 210 nM; in the test on MDA-MB-231, 2850 ± 770 nM. For the compound `O=C1C2=C(CCN(Cc3ccccc3Br)C2)N2CCN=C2N1Cc1ccccc1Cl` [Compound I-18, 7-(2-bromobenzyl)-4-(2-chlorobenzyl)-1,2,6,7,8,9-hexahydroimidazo[1,2-a]pyrido[3,4-e]pyrimidin-5(4H)-one], the IC50 with HCT116 is 2150 ± 22 nM.

Consider `O=C1C2=C(CCN(Cc3ccccc3F)C2)N2CCN=C2N1Cc1ccccc1Br` [Compound I-14, 4-(2-bromobenzyl)-7-(2-fluorobenzyl)-1,2,6,7,8,9-hexahydroimidazo[1,2-a]pyrido[3,4-e]pyrimidin-5(4H)-one], for which the IC50 in the test with HCT116 is 1450 ± 155 nM; in the test with MDA-MB-231, 2080 ± 24 nM. Consider `Cc1cccc(CN2CCC3=C(C2)C(=O)N(Cc2ccccc2F)C2=NCCN23)c1` [Compound I-30, 4-(2-fluorobenzyl)-7-(3-methylbenzyl)-1,2,6,7,8,9-hexahydroimidazo[1,2-a]pyrido[3,4-e]pyrimidin-5(4H)-one], for which the IC50 with HCT116 amounted to 2070 ± 62 nM; in the test on MDA-MB-231 it was 2130 ± 5 nM. Take `O=C1C2=C(CN(Cc3ccccc3)C2)N2CCN=C2N1Cc1ccc(Cl)cc1Cl` [Compound I-56, 2-benzyl-5-(2,4-dichlorobenzyl)-2,3,7,8-tetrahydro-1H-imidazo[1,2-a]pyrrolo[3,4-e]pyrimidin-4(5H)-one]: the IC50 is 2050 ± 30 nM in the test with HCT116 and 2050 ± 40 nM in the test on MDA-MB-231.
